What all share (format): cell-based
Assay [1] concerns 3D InSight Human Liver Microtissues. The experiment in a line: 3D InSight Human Liver Microtissues, DNL condition, intratissue triglyceride content (7 days). How it is done: After a 7 day treatment with dosings at days 0, 2 and 5, intratissue lipid accumulation was measured using Triglyceride-Glo™ Assay (Promega). In addition, metabolic activity of the treated Liver Microtissues (MTs) and cytotoxicity were assessed by measurement of ATP content at day 7 of treatment (CellTiter-Glo® 2.0 Cell Viability Assay, Promega) and LDH release between days 0-2, days 2-5 and days 5-7 (LDH-Glo™ Cytotoxicity Assay, Promega), respectively. Leftover supernatant collected on treatment days 2, 5 and 7 were stored frozen for further analysis. […] Experimental readout measurements comprised collection and freezing of supernatants for LDH measurement on days 2, 5 and 7. Measurement of LDH released into supernatant was analyzed using an LDH-Glo™ Cytotoxicity Assay (Promega). Measurement of ATP content in single MTs after 7 days of treatment with was analyzed using a Cell Titer Glo™ 2.0 Cell Viability Assay (Promega). Measurement of intratissue triglyceride (TG) content after 7 days of treatment was analyzed using a Triglyceride-Glo™ Assay (Promega). […] Total TG content in MTs at day 7 of treatment was measured with Triglyceride-Glo™ Assay (Promega), according to InSphero AG protocol. The amount of glycerol/MT [pmol/MT] was calculated using linear regression to a standard curve. […]

Assay [2] deals with 3D InSight Human Liver Microtissues (NASH condition). Description: 3D InSight Liver NASH model, intratissue triglyceride content (10 days). On the procedure: […]. InSphero's 10-day NASH treatment scheme was applied with compound dosing at days 0, 3, 5 and 7 of treatment. […]. At day 5 of treatment, secreted cytokine levels were measured (LUMINEX™), at days 7 and 10 released procollagen 1 was quantified and at day 10 of treatment intratissue triglyceride content was determined. The release of lactate dehydrogenase (LDH) into culture supernatant was measured at days 3, 5, 7 and 10, in order to detect possible cytotoxicity caused by the treatments. After first data evaluation, released procollagen 3 was measured in supernatants of selected day 10 samples. […]
Cells were dosed on days 0, 3, 5 and […]. Experimental readout measurements comprised collection and freezing of supernatants for LDH measurement on days 3, 5, 7 and 10. Measurement of LDH released into supernatant was analyzed using an LDH-Glo™ Cytotoxicity
Assay (Promega). Measurement of intratissue triglyceride (TG) content after 10 days of treatment was analyzed using a Triglyceride-Glo™ Assay (Promega). […] Measurement of IL-6, IL-8, IP-10, MCP-1, MIP-1α and TNF-α content was analyzed using Magnetic Luminex® Performance Assay, Human XL Cytokine Discovery Base Kit (R&D systems).
. Total TG content in MTs at day 10 of treatment was measured with Triglyceride-Glo™ Assay (Promega), according to InSphero AG protocol. […]

The subject of assay [3] is human precision cut liver slices. Description: Precision cut liver slice (PCLS) in vitro human NASH model, soluble outputs (collagen 1α1, IL-6, TIMP-1 ELISA). How it is done:
PCLSs were prepared from resected liver tissue and rested for 24 hours to allow the post-slicing stress period to elapse before experiments began. […] PCLS culture media, including lipids and compounds, was refreshed at 24 hrs intervals. […] PCLSs were prepared from an n=1 individual human liver. The human livers are normal margins of near-to-normal human liver obtained during a surgical resection. Tissue culture supernatant (n=3 or n=4 per group) were collected every 24 hrs and snap frozen for quantification of the soluble outputs described below. At harvest, n=2 PCLSs were harvested for a triglyceride assay, n=2 PCLSs were harvested for frozen sections (Oil Red O staining), n=2 PCLSs were formalin-fixed, paraffin embedded (FFPE) for immunohistochemistry, and n=2 PCLSs were snap frozen for RNA isolation (Table 4, Groups 1˜4 only).
On the technique in general: In an ELISA, binding on a coated surface is turned into a signal by an enzyme label.

The subject of assay [4] is primary isolated human stellate cells (HSC). The experiment in a line: Primary human hepatic stellate cells stimulated with TGF-β1, total collagen (in vitro fibrosis study).
Protocol: Primary isolated human stellate cells (HSC) were investigated in the study. The cells were maintained under standard culture conditions and in established culture medium.
Study Model: Viability screening and in vitro fibrosis study, 24 well plate format, 4 day stimulation with recombinant human TGF-β1. In this study, 2.5 and 10 ng/ml TGF-β1 were used.
Primary HSCs were seeded on t=day-1 and cultured in 24 well plates for 24 hours. […] Cells were incubated for an additional 96 hours (t=day 4). Conditioned medium samples were collected for expression analysis of secreted proteins. All wells were used for an alamarBlue assay to assess cell viability/metabolic activity. A separate plate was used at t=day 0 as reference for the alamarBlue assay. Next, the cell-matrix fraction was collected for measurement of total collagen and cell protein levels.
Both test compounds were dissolved in DMSO. Working concentrations were prepared from a stock concentration that is 1000-fold that of the highest working concentration. All controls were incubated with the same DMSO concentration as that present in the highest working concentration.
Total Collagen assay was performed according to the manufacturer's protocol.
Total Protein assay, for use with the Total Collagen assay, was performed according to the manufacturer's protocol. Protein levels were used to correct for differences in cell contents between samples.
Significance of differences between the groups was calculated either parametrically or non-parametrically, using the computer program SPSS. For nonparametric calculations, a Kruskal-Wallis test for several independent samples was used, followed by a Mann-Whitney U-test for independent samples. For parametric calculations, a One-way ANOVA for multiple comparisons was used, followed by Dunnett or Bonferroni's correction.

The source of these data is patent US20250017938A1, “COMBINATION THERAPIES OF FASN INHIBITORS WITH THYROID HORMONE RECEPTOR AGONISTS” (Sagimet Biosciences Inc., priority 2023, published 2025).

“Also recorded” adds a separate entry of the source.

As to `Cc1nc(-c2cc(C(=O)N3CCC(c4ccc(C#N)cc4)CC3)c(C)cc2C2CCC2)n[nH]1` [Compound 001-152, 4-(1-(4-Cyclobutyl-2-methyl-5-(5-methyl-4H-1,2,4-triazol-3-yl)benzoyl)piperidin-4-yl)benzonitrile], the “intratissue Triglyceride content” value in assay [1] is reported as “reduces cellular triglycerides”. Besides, in assay [2], the “intratissue Triglyceride content (NASH-induced)” value is given as “reduced cellular triglycerides”. In addition, in assay [3], the “fibrosis marker collagen 1α1 in culture supernatant” value was “dose and time-dependent decrease”. The collagen production result in assay [4] is “inhibits collagen production directly; also recorded: inhibits as effectively as positive control Alk5 inhibitor”.
